In patent publication US7696408B2, “Method to enhance Agrobacterium-mediated transformation of plants” (Regents of the University of Minnesota, priority 1999, dated 2010):
Where “and” joins values, the source holds several entries; their conditions need not be identical. Equal values may be shown once. Entries after “also recorded” stand apart in the source; their conditions may differ.

Tests used:
[1] = tested on: soybean cot-node explants; assay: GUS+ sectors, shoots and shoot primordia after 28 days (4 weeks) on shoot induction medium with PPT (stable transformation); type: cell-based, Glycine max; conditions: for % of explants with GUS+ shoots: Bert
Procedure: After 5 days, the explants were washed in a liquid shoot induction media (B5 salts, MSIII iron stock, 3% sucrose, 3 mM MES, and filter sterilized B5 vitamins, 1.67 mg/l BAP, 100 mg/l cefotaxime, and 500 mg/l ticarcillin; pH 5.6) to remove excess Agrobacterium. Seven to ten explants from each cysteine level were washed in liquid shoot induction medium and placed in GUS histochemical stain (Jefferson et al., 1987). These explants were scored for GUS transient expression. Five to ten explants from each group were imbedded into a single 25×100 mm petri plate with solid shoot induction media (0.8% agar and agent, e.g., 400 mg/l cysteine) containing PPT concentrations of 1.33 mg/l, 3.33 mg/l, or 5.0 mg/l for selection. The plates were then incubated in a growth chamber with a fluctuating temperature between 18° C.-30° C. under a 18 hours light/6 hours dark cycle at 90-150 μE/m^2s. The explants were removed from the chamber after 14 days and transferred to fresh shoot induction media containing herbicide selection. During the transfer, the hypocotyl was carefully removed from the developing shoot mass and imbedded into the media with the differentiating tissue flush with the media surface. The plates were placed back into the growth chamber for an additional 2 weeks. At the 4 week time point, explants without de novo shoot production were discarded. The cotyledons were then removed from the differentiating tissue by cutting at the base of the node and the callus trimmed before transferring into shoot elongation media containing MS salts (murashige and Skoog, 1962), MSIII iron stock, 3% sucrose, 3 mM MES, 0.8% agar, and filter sterilized B5 vitamins, 50 mg/l asparagine, 100 mg/l pyroglutamic acid, 1 mg/l zeatin riboside, 0.1 mg/l indole-acetic acid, 0.5 mg/l GA3, 100 mg/l cefotaxime, 500 mg/l ticarcillin, 1.3-5 mg/l PPT; pH 5.6). Also at this time, a percentage of the explants were sliced into about 10 sections and stained for both GUS positive sectors and GUS positive shoots. Every 2 weeks the explants were transferred into new shoot elongation media after removing dead plant tissue and the bottom of the explant cut to encourage shoot elongation of transformed shoots. For the 4 week data, the minimum number of transformation events was recorded. Those explants with a GUS positive sector in the differentiating tissue giving rise to shoots were recorded with the number of transformation events in bold and italicized (FIGS. 2-5). Shoot data was obtained by recording the number of fully formed shoots seen on an explant. […] To determine the effect of adding cysteine to the co-cultivation medium on stable transformation, co-cultured explants were cultured for 28 days on a shoot-inducing medium containing the herbicide, phosphinothricin (PPT). During the 28 day incubation, the explants usually form de novo callus and shoots in the cot-node region in a structure referred to as a callus/shoot pad (FIG. 9). The callus/shoot pads were sliced in approximately 5 mm sections, immersed into GUS histochemical stain, and scored for GUS^+ sectors throughout the callus/shoot pad. […] The formation of transgenic shoot primordia and sectors extending into developing shoot tissues were also scored on 28 day sections of explants co-cultivated on 0 and 400 mg/l cysteine (FIG. 10A). Only those GUS^+ shoot primordia with obvious trichomes, which are characteristic to leaf tissue, or GUS^+ sectors originating and extending into the tissue at the base of developing shoots (referred to hereafter as differentiating tissue) were scored (FIG. 1A2).

[2] = tested on: soybean explants; assay: Enzymatic browning and growth of soybean explants after co-cultivation; type: cell-based, Glycine max; conditions: for enzymatic browning of soybean explants: cysteine (e.g., 400-1000 mg/l) in solid co-cultivation medium
[3] = cysteine 400-1000 mg/l, eight independent experiments

Structure (SMILES): N[C@@H](CS)C(=O)O [L-cysteine]
- % of explants with GUS+ shoots ([1]; 400 mg/l cysteine and 3.33 mg/l PPT): 16.6% and 16.7%
- % of explants with GUS+ shoots ([1]; 400 mg/l cysteine and 5 mg/l PPT): 33.3%
- average number of GUS+ sectors per explant, each genotype tested ([1]; 400 mg/l cysteine vs no cysteine, 28 day): significantly greater
- frequency of explants with a GUS+ sector in differentiating tissue, relative to no cysteine ([1]; 400 mg/l cysteine, 28 days): 3.5 fold
- percent of explants with GUS+ shoot primordia, relative to no cysteine ([1]; 400 mg/l cysteine, 28 days): 5 fold
- average GUS+ foci/explant scored after 4 weeks of shoot initiation ([1]; 400 mg/l cysteine, low selection pressure 1.6 to 3.33 mg/l PPT, control 3.3): 15.6 GUS+ foci/explant
- percent of explants with GUS+ shoot primordia or differentiated sectors, difference from 0 mg/l cysteine ([1]; 400 mg/l shoot primordia and differentiated sectors, 1000 mg/l shoot primordia, α=0.05): significantly differ
- increase in GUS+ sectors over the control explants ([1]; 1000 mg/l cysteine, 28 days): 3.6 fold
- average number of GUS+ sectors per explant compared to no cysteine ([1]; 300 to 1000 mg/l cysteine (FIG. 9 also 1500 mg/l), 28 days, P<0.05): significantly higher; also recorded: significantly differ
- increase in GUS+ sectors over the no cysteine control ([1]; 400 to 1000 mg/l cysteine, 28 days): > 3 fold
- explants with GUS+ shoot primordia at other cysteine levels ([1]; all other levels of cysteine tested, except 50 mg/l, 28 days): at least one explant
- GUS+ foci at the 28-day interval ([1]; amended to solid co-cultivation media): increase
- increase in GUS+ shoot primordia after 28 days [1, 3]: 5 fold
- increase in stable T-DNA integration after 28 days [1, 3]: 3.6 fold
- number of GUS+ sectors on the callus/shoot pad, cysteine in shoot induction medium ([1]; cysteine added to shoot induction medium for 28 days): did not increase
- increase in stable T-DNA transfer in newly developed shoot primordia ([1]; cysteine in co-cultivation media): ≥ 5 fold
- callus growth on the hypocotyl ([2]; co-cultivated in 1000 mg/l cysteine, 28 days): little callus growth on the hypocotyl
- growth of the hypocotyls of explants ([2]; co-cultivated in 800 and 1000 mg/l cysteine, experiment #7): little to no growth of the hypocotyls
- enzymatic browning of soybean explants ([2]; listed as Cysteine): decreased
- enzymatic browning of soybean explants ([2]; listed as cysteine): less browning
